This note sets out measurements from ChEMBL document CHEMBL4402510, “Caprazamycins: Promising lead structures acting on a novel antibacterial target MraY” (Eur J Med Chem, 2019).

Some results are limits rather than exact numbers.

The first experiment addresses T1, Phospho-N-acetylmuramoyl-pentapeptide-transferase (Bacillus subtilis (strain 168), UniProt Q03521).
T1 sequence (Q03521 whole entry): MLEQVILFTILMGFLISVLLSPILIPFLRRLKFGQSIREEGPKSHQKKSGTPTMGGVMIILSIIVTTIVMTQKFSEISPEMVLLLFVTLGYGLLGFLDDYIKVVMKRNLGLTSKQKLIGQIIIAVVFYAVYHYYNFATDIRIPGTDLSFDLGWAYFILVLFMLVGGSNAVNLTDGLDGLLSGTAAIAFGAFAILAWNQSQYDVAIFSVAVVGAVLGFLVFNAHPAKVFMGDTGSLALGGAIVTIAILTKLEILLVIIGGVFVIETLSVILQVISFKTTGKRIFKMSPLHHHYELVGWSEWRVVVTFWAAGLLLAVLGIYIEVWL
Put plainly: Inhibition of MraY in Bacillus subtilis.
A word on the IC50: it is the concentration needed to halve the response being measured. Low readings indicate greater potency, high ones weaker potency. Turning to `NC[C@H]1O[C@@H](O[C@@H](c2cn(CCCOc3ccc(C(=O)c4ccccc4)cc3)nn2)[C@H]2O[C@@H](n3ccc(=O)[nH]c3=O)[C@H](O)[C@@H]2O)[C@H](O)[C@@H]1O` [listing 1 of 2 here], the IC50 is 100 µM. With `NC[C@H]1O[C@@H](O[C@@H](c2cn(CCN3CCN(c4ccc(N)cn4)CC3)nn2)[C@H]2O[C@@H](n3ccc(=O)[nH]c3=O)[C@H](O)[C@@H]2O)[C@H](O)[C@@H]1O`, the IC50 was more than 1000 µM.

In turn, `NCCCCCn1cc([C@H](O[C@@H]2O[C@H](CN)[C@@H](O)[C@H]2O)[C@H]2O[C@@H](n3ccc(=O)[nH]c3=O)[C@H](O)[C@@H]2O)nn1` had an IC50 of more than 1000 µM. `NC[C@H]1O[C@@H](O[C@@H](c2cn(CCCCCCCCCCOc3ccc(C(=O)c4ccccc4)cc3)nn2)[C@H]2O[C@@H](n3ccc(=O)[nH]c3=O)[C@H](O)[C@@H]2O)[C@H](O)[C@@H]1O` showed a half-inhibitory concentration (IC50) of 125 µM.

`NC[C@H]1O[C@@H](O[C@@H](c2cn(CCCOc3ccc(C(=O)c4ccccc4)cc3)nn2)[C@H]2O[C@@H](n3ccc(=O)[nH]c3=O)[C@H](O)[C@@H]2O)[C@H](O)[C@@H]1O` [listing 2 of 2 here] displayed an IC50 of 100 µM. The molecule `NC[C@H]1O[C@@H](O[C@@H](c2cn(CCCCCOc3ccc(C(=O)c4ccccc4)cc3)nn2)[C@H]2O[C@@H](n3ccc(=O)[nH]c3=O)[C@H](O)[C@@H]2O)[C@H](O)[C@@H]1O` returned a 50% inhibitory concentration (IC50) of 100 µM.

With `NC[C@H]1O[C@@H](O[C@@H](c2cn(CCCCCN3CCCCC3)nn2)[C@H]2O[C@@H](n3ccc(=O)[nH]c3=O)[C@H](O)[C@@H]2O)[C@H](O)[C@@H]1O`, the IC50 turned out to be 150 µM.

Consider `NC[C@H]1O[C@@H](O[C@@H](c2cn(CCCO)nn2)[C@H]2O[C@@H](n3ccc(=O)[nH]c3=O)[C@H](O)[C@@H]2O)[C@H](O)[C@@H]1O`, for which the half-maximal inhibitory concentration (IC50) is more than 1000 µM. The same measure, in the same setting: under `NC[C@H]1O[C@@H](O[C@@H](c2cn(CCCc3ccccc3)nn2)[C@H]2O[C@@H](n3ccc(=O)[nH]c3=O)[C@H](O)[C@@H]2O)[C@H](O)[C@@H]1O` stands 250 µM. `CCCCCCCCCCn1cc([C@H](O[C@@H]2O[C@H](CN)[C@@H](O)[C@H]2O)[C@H]2O[C@@H](n3ccc(=O)[nH]c3=O)[C@H](O)[C@@H]2O)nn1` had an IC50 of 140 µM.

The molecule `C#C[C@H](O[C@@H]1O[C@H](CN)[C@@H](O)[C@H]1O)[C@H]1O[C@@H](n2ccc(=O)[nH]c2=O)[C@H](O)[C@@H]1O` registered a half-maximal inhibitory concentration (IC50) of 100 µM.

In turn, `NC[C@H]1O[C@@H](O[C@@H](c2cn(CCCCCO)nn2)[C@H]2O[C@@H](n3ccc(=O)[nH]c3=O)[C@H](O)[C@@H]2O)[C@H](O)[C@@H]1O` gave a half-inhibitory concentration (IC50) of more than 1000 µM. The same measure, in the same setting: under `NC[C@H]1O[C@@H](O[C@@H](c2cn(C3CCCCCC3)nn2)[C@H]2O[C@@H](n3ccc(=O)[nH]c3=O)[C@H](O)[C@@H]2O)[C@H](O)[C@@H]1O` stands more than 1000 µM; under `NC[C@H]1O[C@@H](O[C@@H](c2cn(CCCn3ccnc3)nn2)[C@H]2O[C@@H](n3ccc(=O)[nH]c3=O)[C@H](O)[C@@H]2O)[C@H](O)[C@@H]1O`, more than 1000 µM.

In turn, `NC[C@H]1O[C@@H](O[C@@H](c2cn(CCc3ccc(-c4ccccc4)cc3)nn2)[C@H]2O[C@@H](n3ccc(=O)[nH]c3=O)[C@H](O)[C@@H]2O)[C@H](O)[C@@H]1O` came in with an IC50 of 400 µM.

For a further experiment, the target named is T2, Phospho-N-acetylmuramoyl-pentapeptide-transferase (Aquifex aeolicus (strain VF5), UniProt O66465).
T2 sequence (O66465 whole entry): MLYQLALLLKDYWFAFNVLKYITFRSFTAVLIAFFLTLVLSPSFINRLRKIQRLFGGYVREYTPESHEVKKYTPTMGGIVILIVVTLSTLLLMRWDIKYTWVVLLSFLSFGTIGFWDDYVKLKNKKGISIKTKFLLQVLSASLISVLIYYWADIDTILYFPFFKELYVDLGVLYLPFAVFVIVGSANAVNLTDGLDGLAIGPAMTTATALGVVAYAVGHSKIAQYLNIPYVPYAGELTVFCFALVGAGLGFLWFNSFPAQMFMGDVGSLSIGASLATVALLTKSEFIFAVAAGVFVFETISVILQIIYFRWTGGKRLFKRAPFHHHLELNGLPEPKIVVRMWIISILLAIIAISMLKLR
Put plainly: Inhibition of MraY in Aquifex aeolicus.
Turning to `NC[C@H]1O[C@@H](O[C@@H](c2cn(CCCOc3ccc(C(=O)c4ccccc4)cc3)nn2)[C@H]2O[C@@H](n3ccc(=O)[nH]c3=O)[C@H](O)[C@@H]2O)[C@H](O)[C@@H]1O` [listing 1 of 2 here], the midpoint of inhibition, the IC50, lay at 125 µM.
